Data from US20040009156A1, “Antisense therapy using oligonucleotides that target human kinesin genes for treatment of cancer” (priority 2001, published 2004).

Key:
SW620 cells [1] = assay: LDH cytotoxicity assay, alone and with cisplatinum; assay type: cell-based, human; settings: FIG. 4
Experimental: LDH cytotoxicity assays were performed to determine the effect of antisense oligonucleotides on SW620 cell death alone and in the presence of the chemotherapeutic drug cisplatinum. […] Also, the same LDH cytotoxicity assays were performed on MRC9 cells transfected with the same oligonucleotides in the presence or absence of cisplatinum.

[2] = system: human colon cancer cell line SW620; assay: Soft agar growth (anchorage independent growth) of transfected SW620 cells; assay type: cell-based; settings: SW620 cells transfected with antisense oligonucleotide; versus reverse control; FIG. 1
From the text: The antisense oligonucleotides (SEQ IDNO:17), (SEQ IDNO:4), and (SEQ ID NO:1) were each transfected into the human colon cancer cell line SW620. Additionally, the same colon cancer cell line was transfected with the corresponding reverse control sequences (respectively SEQ ID NO:35, SEQ ID NO:22 and SEQ ID NO:19). […] These assay results contained in FIG. 1 indicate that the synthesized kinesin antisense oligonucleotides inhibit tumorigenesis.

SW620 cells [3] = assay: Cell cycle profile by FACS analysis of propidium iodide stained cells; assay type: cell-based, human; settings: SW620 cells transiently transfected; FIG. 2
Experimental: SW620 cells were transiently transfected with antisense oligonucleotides according to the invention and the effect on cell cycle profile evaluated by FACS analysis of propidium iodide stained cells. It was observed that cell tested antisense oligonucleotides arrested cells in G2/M phase to different degrees. […] Also, the effect of the same antisense oligonucleotides on the cell cycle of normal human filonblasts was tested.

## GTTGATCTGGGCTCGCAGAGGTAAT (chemistry not given here) [SEQ ID NO:4]
SW620 cells [1]
  cell death (LDH cytotoxicity), oligonucleotide alone: induced death
[2]
  capability of the cells to grow in soft agar (anchorage independent growth): significantly inhibited

## TGGATAAATTGCCTGGAATCAGCGC (chemistry not given here) [SEQ ID NO:17]
SW620 cells [1]; in combination with the chemotherapeutic drug cisplatinum
  cytotoxicity (LDH) in combination with cisplatinum: increase in cytotoxicity
[2]
  capability of the cells to grow in soft agar (anchorage independent growth): significantly inhibited

## CCTCCGCCATCCTATCAGGCTGAA (chemistry not given here) [SEQ ID NO:1]
SW620 cells [1]
  cell death (LDH cytotoxicity), oligonucleotide alone: did not induce cytotoxicity
[2]
  capability of the cells to grow in soft agar (anchorage independent growth): significantly inhibited
SW620 cells [3]
  cell cycle arrest in G2/M phase: next best inhibiting effect
